Reference: patent US20260327211A1, “MODULATORS OF A POTASSIUM CHANNEL AND OF TRPV1 CHANNEL AND USES THEREOF” (Bsense Bio Therapeutics Ltd., priority 2023, published 2026)
Like-named read-outs stand apart in the source and are kept apart here. Each block holds one compound with its values, some of them ahead of it.

Columns and labels:
opioid mu receptor = molecular target: T1, opioid mu receptor (Homo sapiens, UniProt P35372); experiment: Functional selectivity panel, opioid mu receptor; assay type: biochemical
T1 construct: Eurofins DiscoverX, USA (assay provider)
Procedure: (§1) A broad panel of 78 recombinant targets was tested for pharmacologic activity in vitro through a variety of functional assays (Eurofins DiscoverX, USA), as part of the National Institute of Neurological Disorders and Stroke (NINDS) Preclinical Screening Platform for Pain (PSPP) program. The biological targets for the in vitro profiling have been selected based on avoiding opioid receptor stimulation and targets known to be associated with adverse events or targeted by drugs of abuse. […] For each test, a reference compound was evaluated at the target of interest as a positive control.

adrenergic β2 = molecular target: T2, adrenergic β2 (Homo sapiens, UniProt P07550); experiment: Functional selectivity panel, adrenergic β2; assay type: biochemical
T2 construct: Eurofins DiscoverX, USA
Procedure: as §1

Kv7.1 = molecular target: T3, Kv7.1 (Homo sapiens, UniProt P51787); experiment: Kv7.1; assay type: biochemical
T3 construct: Eurofins DiscoverX, USA (assay provider)
Procedure: as §1

rats = experiment: Core body temperature; assay type: in vivo, rat
Procedure: Core Body Temperature: Following two days of habituation to the measurement method, the body temperature was measured on study day for baseline values and then again post-dosing in the time points indicated in the figure. Body temperature was measured using a probe gently inserted into the animal anus using a corn oil lubricant (C8267, Sigma-Aldrich, IL).

CYP2C19 = molecular target: T4, CYP2C19 (Homo sapiens, UniProt P33261); experiment: CYP inhibition / time-dependent inhibition, CYP2C19_S-Mephenytoin; assay type: in vitro ADME; conditions: role: inhibitor
T4 construct: pre-incubation of the human liver microsomes with the test compound; tissue Corning; host or cells: human liver microsomes
Procedure: (§2) The time-dependent inactivation potency of the test compound to CYP enzymatic activities was assessed by the pre-incubation of the human liver microsomes with the test compound in the presence and absence of NADPH, followed by the incubation with the discrete marker substrates, as follows.
(§3) Pre-incubation with human liver microsomes (HLMs): The TDI inactivation potency on CYP enzymatic activities was evaluated through pre-incubation with HLMs (Corning). A liver microsome mixture at a concentration of 0.1 mg/mL, and the test compound at 8 different concentrations (0, 0.05, 0.165, 0.5, 1.65, 5.0, 16.5, or 50.0 μM) was warmed at 37° C. for 10 minutes. Concurrently, a set of known time-dependent inactivators was also prepared in duplicate for comparison. Following this, NADPH (1.0 mM) was added to one group (Group 1), and an equal volume of potassium phosphate buffer to the second group (Group 2), marking the beginning of a 30-minute pre-incubation at 37° C.
(§4) Incubation: After pre-incubation, the marker substrate, or marker substrate plus NADPH was added to the mixture, thereby initiating the incubation. The duration of the incubation was dependent on the type of CYP isoform being evaluated. For example, with the CYP3A isoform, the mixture was incubated over 3 minutes utilizing midazolam as the marker substrate (2.0 μM), verapamil as the standard inactivator (3.5 μM).
(§5) Termination of Reaction: Following the incubation, ice-cooled acetonitrile containing the internal standard (IS) was added to halt the reactions. Metabolites generated from the marker substrates were then measured via LC-MS/MS, assessed based on peak area ratios of the analyte to IS.

kappa opioid receptors = molecular target: T5, kappa opioid receptors (Homo sapiens, UniProt P41145); experiment: Functional selectivity panel, kappa opioid receptors; assay type: biochemical
T5 construct: Eurofins DiscoverX, USA
Procedure: as §1

[1] = CYP inhibition / time-dependent inhibition, CYP3A4_Testosterone; assay type: in vitro ADME; conditions: human, liver microsomes, role: inhibitor, substrate testosterone
Procedure: as §2, §3, §4, §5

Rat hepatocyte stability = assay type: in vitro ADME; conditions: hepatocytes; for half-life: read-out: Hepatocytes (rat) T1/2
CYP2C9 = molecular target: T6, CYP2C9 (Homo sapiens, UniProt P11712); experiment: CYP inhibition / time-dependent inhibition, CYP2C9_Diclofenac; assay type: in vitro ADME; conditions: role: inhibitor
T6 construct: pre-incubation of the human liver microsomes with the test compound; tissue Corning; host or cells: human liver microsomes
Procedure: as §2, §3, §4, §5

[2] = Ligand-lipophilicity efficiency (LLE); assay type: physicochemical
From the text: Ligand-lipophilicity efficiency (LLE) is a parameter used in drug design and drug discovery to evaluate the quality of research compounds, linking potency and lipophilicity.
To follow LLE values, the following equation was used: […]
Suitable LLE value are typically higher than 3 or higher than 5.

T6 sequence (P11712 whole entry): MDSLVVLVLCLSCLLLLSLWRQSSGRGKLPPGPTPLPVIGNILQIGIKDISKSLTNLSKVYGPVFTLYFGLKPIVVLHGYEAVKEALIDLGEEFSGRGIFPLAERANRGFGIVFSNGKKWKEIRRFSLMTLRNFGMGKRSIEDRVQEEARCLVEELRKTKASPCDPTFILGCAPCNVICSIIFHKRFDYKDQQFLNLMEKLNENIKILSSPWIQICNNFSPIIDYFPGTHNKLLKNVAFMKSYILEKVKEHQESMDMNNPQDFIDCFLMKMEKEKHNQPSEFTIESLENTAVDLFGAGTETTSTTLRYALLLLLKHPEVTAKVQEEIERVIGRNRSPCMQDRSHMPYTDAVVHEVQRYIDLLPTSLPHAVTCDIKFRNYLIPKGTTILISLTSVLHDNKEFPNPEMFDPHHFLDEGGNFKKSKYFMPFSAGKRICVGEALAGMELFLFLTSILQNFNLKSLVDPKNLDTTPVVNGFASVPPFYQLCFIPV
T4 sequence (P33261 whole entry): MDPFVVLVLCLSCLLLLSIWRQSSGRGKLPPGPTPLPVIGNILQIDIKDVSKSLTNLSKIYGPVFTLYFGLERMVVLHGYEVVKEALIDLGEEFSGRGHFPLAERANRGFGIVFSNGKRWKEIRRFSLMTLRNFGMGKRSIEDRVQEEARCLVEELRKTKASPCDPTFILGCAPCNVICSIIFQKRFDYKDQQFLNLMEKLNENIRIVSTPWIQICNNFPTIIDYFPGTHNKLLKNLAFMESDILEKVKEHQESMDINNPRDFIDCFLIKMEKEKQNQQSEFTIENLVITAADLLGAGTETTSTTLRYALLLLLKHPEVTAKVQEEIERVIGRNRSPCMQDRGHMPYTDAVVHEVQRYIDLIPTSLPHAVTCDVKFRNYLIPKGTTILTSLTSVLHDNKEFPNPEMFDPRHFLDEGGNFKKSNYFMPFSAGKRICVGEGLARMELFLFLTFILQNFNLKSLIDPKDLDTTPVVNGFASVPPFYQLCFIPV
T1 sequence (P35372 whole entry): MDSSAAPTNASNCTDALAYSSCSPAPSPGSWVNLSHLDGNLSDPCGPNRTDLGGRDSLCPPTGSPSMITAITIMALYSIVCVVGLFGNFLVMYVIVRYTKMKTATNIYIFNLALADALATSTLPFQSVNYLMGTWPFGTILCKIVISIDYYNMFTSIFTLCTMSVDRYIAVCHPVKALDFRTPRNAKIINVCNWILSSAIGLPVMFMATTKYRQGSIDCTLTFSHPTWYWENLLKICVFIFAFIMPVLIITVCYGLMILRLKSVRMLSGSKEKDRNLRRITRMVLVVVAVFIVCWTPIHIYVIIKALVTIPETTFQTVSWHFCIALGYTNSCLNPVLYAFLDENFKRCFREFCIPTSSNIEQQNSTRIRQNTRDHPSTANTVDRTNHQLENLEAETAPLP
T3 sequence (P51787 whole entry): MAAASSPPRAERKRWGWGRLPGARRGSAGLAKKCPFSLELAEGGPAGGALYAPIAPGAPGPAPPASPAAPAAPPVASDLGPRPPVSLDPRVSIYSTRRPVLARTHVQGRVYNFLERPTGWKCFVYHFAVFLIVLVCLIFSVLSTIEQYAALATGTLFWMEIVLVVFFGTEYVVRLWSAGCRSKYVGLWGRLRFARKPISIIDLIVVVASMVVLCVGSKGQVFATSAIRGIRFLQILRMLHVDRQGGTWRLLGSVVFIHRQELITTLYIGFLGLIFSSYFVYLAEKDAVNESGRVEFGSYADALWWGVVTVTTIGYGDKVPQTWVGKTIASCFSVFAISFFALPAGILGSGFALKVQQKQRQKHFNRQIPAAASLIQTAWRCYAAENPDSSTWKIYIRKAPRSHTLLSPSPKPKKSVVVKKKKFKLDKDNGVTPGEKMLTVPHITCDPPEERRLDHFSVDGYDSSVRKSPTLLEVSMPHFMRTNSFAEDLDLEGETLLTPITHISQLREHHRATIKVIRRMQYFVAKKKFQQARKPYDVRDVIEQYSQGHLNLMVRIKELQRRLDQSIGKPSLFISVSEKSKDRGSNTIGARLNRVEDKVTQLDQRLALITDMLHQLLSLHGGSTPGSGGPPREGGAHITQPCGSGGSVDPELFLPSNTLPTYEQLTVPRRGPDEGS
T5 sequence (P41145 whole entry): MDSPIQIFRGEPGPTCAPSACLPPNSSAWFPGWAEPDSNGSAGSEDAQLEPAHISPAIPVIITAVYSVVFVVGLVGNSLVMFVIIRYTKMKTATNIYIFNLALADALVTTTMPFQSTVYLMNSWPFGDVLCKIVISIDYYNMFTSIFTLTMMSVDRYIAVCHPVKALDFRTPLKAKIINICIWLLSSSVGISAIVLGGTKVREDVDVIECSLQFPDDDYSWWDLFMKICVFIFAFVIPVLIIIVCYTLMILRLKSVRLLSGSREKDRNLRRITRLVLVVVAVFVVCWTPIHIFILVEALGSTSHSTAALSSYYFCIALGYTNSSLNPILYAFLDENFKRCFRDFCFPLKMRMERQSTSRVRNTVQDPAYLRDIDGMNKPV
T2 sequence (P07550 whole entry): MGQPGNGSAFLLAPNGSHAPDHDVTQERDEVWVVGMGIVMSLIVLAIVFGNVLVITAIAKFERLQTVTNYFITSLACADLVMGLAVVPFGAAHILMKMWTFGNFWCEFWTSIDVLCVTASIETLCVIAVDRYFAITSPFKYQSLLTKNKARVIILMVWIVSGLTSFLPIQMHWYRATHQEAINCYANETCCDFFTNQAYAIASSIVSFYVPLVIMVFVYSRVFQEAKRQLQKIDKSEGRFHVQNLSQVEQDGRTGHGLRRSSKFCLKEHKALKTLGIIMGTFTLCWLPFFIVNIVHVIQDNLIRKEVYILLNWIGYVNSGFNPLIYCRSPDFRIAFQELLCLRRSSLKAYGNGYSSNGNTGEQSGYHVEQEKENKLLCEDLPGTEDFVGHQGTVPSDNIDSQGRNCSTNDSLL

IC50 (opioid mu receptor): 6 µM
IC50 (adrenergic β2; read-out: adrenergic β2 IC50): 4 µM
Core body temperature (rats; up to 300 mg/kg, 1-24 hours post-dose): no effects on core body temperature
IC50 (CYP2C19; (+)NADPH pre-incubation, substrate S-mephenytoin, read-out: IC50 (+)NADPH CYP2C19_S-Mephenytoin): 18.5 µM
IC50 (CYP2C19; (−)NADPH pre-incubation, substrate S-mephenytoin, read-out: IC50 (−)NADPH CYP2C19_S-Mephenytoin): 15.6 µM
EC50 (kappa opioid receptors; PAM): 7 µM
IC50 at 0.5 h ([1]; (+)NADPH pre-incubation): 7.36 µM
IC50 at 0.5 h ([1]; (−)NADPH pre-incubation): 10.1 µM
CLint scaled (Rat hepatocyte stability): 1140 mL/min/kg
half-life (Rat hepatocyte stability): 5.7 min
IC50 (CYP2C9; (+)NADPH pre-incubation, substrate diclofenac, read-out: IC50 (+)NADPH CYP2C9_Diclofenac): 13 µM
IC50 (CYP2C9; (−)NADPH pre-incubation, substrate diclofenac, read-out: IC50 (−)NADPH CYP2C9_Diclofenac): 14.8 µM
Structure (SMILES): O=C(Cc1cncc(-n2cc(Cl)c3cc(Cl)cc(Cl)c32)c1)N[C@@H]1COC[C@H]1O [Compound 661]
Kv7.1 activity (Kv7.1; up to solubility limit): no measurable activity at any concentration tested
Core body temperature (rats; 20 and 50 mg/kg PO): no significant change in core body temperature

LLE [2]: 2.1
Structure (SMILES): Cc1cn(-c2ccc(F)c(CC(=O)NCC(C)(C)O)c2)c2c(Cl)cc(Cl)cc12 [Compound 421]

CLint scaled (Rat hepatocyte stability): 514 mL/min/kg
half-life (Rat hepatocyte stability): 12.6 min
Structure (SMILES): O=C(Cc1cc(-n2cc(Cl)c3cc(Cl)cc(Cl)c32)ccc1F)NCCO [Compound 627]

Continued, compound first:

Structure (SMILES): O=C(Cc1nccc(-n2cc(Cl)c3cc(Cl)cc(Cl)c32)n1)NC1COCC1O (stereo not shown) [Compound 760]
Effect on Opioid mu (opioid mu receptor; up to 10 micromolar): no effect
IC50 (adrenergic β2; antagonist, read-out: IC/EC50 Adrenergic β2-antagonist): 46 µM
Effect on Kv7.1 (Kv7.1; up to 10 micromolar): no effect
Core body temperature (rats; up to 300 mg/kg oral): displayed safety potential at up to 300 mg/kg oral dosing
IC50 (CYP2C19; Table 9, read-out: CYP inhibition IC50 CYP2C19): > 50 µM
Effect on Opioid kappa (kappa opioid receptors; up to 10 micromolar): no effect
IC50 ([1]; Table 9, read-out: CYP inhibition IC50 CYP3A-Testosterone): 19.8 µM
IC50 (CYP2C9; Table 9, read-out: CYP inhibition IC50 CYP2C9): 44.3 µM

Structure (SMILES): CC(C)c1cc(Cl)cc(Cl)c1Nc1ccc(F)c(CC(=O)NCC(C)(C)O)c1 [NH91, reference compound]
LLE [2]: 1.6
LLE Kv 7.2/7.3 [2]: 0.8
LLE TRPV1 [2]: −0.35
